Earlier results on 1 substance are cited in patent publication US20090023742A1, “THIAZOLONES FOR USE AS PI3 KINASE INHIBITORS” (priority 2006, published 2009).

By IC50 is commonly meant the concentration at which inhibition is half-maximal.

The data set deals with Class I PI3-kinases. As to conditions: each of the four Class I PI3-kinases; read-out: IC50 values against each of the various Class I PI3-kinases.

For wortmannin, the IC50 is 1 to 10 nM.
